Legend:
[1] = target: T1, Glucocorticoid receptor (Homo sapiens) (UniProt P04150); assay: Agonist activity at glucocorticoid receptor in human HepG2 cells co-transfected with PEPCK assessed as GRE activation by luciferase reporter gene assay relative to Dexamethasone; assay type: functional, cell-based
T1 sequence (whole entry): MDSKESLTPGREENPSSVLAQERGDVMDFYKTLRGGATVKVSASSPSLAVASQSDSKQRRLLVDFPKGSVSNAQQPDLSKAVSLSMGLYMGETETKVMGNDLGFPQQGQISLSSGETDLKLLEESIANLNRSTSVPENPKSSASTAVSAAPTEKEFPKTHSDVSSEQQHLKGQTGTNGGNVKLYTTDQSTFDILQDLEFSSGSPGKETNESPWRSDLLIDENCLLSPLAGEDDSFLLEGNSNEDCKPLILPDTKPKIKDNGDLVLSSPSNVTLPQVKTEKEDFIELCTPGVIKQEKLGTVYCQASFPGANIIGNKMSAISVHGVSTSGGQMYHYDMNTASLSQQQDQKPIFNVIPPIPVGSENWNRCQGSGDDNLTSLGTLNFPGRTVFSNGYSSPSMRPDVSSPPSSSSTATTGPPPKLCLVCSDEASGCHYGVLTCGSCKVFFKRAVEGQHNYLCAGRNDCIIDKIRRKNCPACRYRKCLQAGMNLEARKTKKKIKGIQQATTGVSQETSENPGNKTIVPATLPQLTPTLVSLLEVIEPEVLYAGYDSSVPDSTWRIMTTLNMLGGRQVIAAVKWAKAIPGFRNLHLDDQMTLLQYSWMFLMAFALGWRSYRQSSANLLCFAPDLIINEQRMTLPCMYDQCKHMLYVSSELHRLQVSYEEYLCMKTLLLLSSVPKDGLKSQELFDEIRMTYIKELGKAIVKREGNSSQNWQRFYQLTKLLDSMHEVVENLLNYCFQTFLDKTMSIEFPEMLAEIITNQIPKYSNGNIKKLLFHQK

Progesterone receptor = target: T2, Progesterone receptor (Homo sapiens, UniProt P06401); assay: Binding affinity to progesterone receptor
T2 sequence (P06401 whole entry): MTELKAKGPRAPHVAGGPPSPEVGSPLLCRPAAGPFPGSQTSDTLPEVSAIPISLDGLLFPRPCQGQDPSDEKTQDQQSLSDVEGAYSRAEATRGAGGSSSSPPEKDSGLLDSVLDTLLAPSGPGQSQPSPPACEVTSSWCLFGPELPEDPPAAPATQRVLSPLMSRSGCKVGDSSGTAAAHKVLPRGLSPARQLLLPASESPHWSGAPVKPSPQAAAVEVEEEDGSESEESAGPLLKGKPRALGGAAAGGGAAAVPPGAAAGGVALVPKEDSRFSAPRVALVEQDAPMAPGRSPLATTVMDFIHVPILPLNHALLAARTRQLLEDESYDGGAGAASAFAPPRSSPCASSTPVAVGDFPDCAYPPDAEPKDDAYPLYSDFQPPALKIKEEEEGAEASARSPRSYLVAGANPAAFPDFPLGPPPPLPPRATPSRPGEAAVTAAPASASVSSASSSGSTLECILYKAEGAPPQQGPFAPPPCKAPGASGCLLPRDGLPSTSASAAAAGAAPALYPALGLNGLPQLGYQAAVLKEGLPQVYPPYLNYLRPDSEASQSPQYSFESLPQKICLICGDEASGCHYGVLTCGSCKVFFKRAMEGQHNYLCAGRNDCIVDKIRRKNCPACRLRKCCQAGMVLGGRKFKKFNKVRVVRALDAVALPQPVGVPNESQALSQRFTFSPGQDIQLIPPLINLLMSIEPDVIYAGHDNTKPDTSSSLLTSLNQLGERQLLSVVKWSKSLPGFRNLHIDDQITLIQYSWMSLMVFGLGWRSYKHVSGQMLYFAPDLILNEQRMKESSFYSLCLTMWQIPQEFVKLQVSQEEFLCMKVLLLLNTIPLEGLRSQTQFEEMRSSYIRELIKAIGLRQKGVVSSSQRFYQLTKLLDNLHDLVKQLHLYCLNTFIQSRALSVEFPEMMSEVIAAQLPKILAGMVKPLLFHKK

Glucocorticoid receptor [2] = target: T3, Glucocorticoid receptor (Homo sapiens, UniProt P04150); assay: Agonist activity at glucocorticoid receptor in human HepG2 cells co-transfected with PEPCK assessed as GRE activation by luciferase reporter gene assay; assay type: functional, cell-based
T3 sequence (P04150 whole entry): T1 sequence (whole entry)

Glucocorticoid receptor [3] = target: T3, Glucocorticoid receptor; assay: Agonist activity at glucocorticoid receptor in human HepG2 cells co-transfected with GRE assessed as GRE activation by luciferase reporter gene assay; assay type: functional, cell-based

Row | Activity [1] | Ki (Progesterone receptor) | EC50 (Glucocorticoid receptor [2]) | EC50 (Glucocorticoid receptor [3]) | Compound
1 | 28% | 220 nM | 70 nM | 5 nM | Cc1c[nH]c2c(-c3c(F)cc4c(c3F)/C(=N/OC(C)(C)C)CC(C)(C)N4)cccc12
2 | 27% | 570 nM | 67 nM | 3.4 nM | CC1(C)C/C(=N\OC(C)(C)C)c2c(cc(F)c(-c3cccc4c(Cl)c[nH]c34)c2F)N1
3 | 22% | 950 nM | 350 nM | 19 nM | Cc1c[nH]c2c(-c3c(F)cc4c(c3F)/C(=N/OC(C)(C)CO)CC(C)(C)N4)cccc12
4 | 79% | 3800 nM | 560 nM | 3.9 nM | CO/N=C1/c2c(cc(F)c(-c3cccc4c(C)c[nH]c34)c2F)NC(C)(C)C1O (racemic)
5 | 35% | 380 nM | 250 nM | 0.6 nM | Cc1c[nH]c2c(-c3c(F)cc4c(c3F)/C(=N/OC(C)C)CC(C)(C)N4)cccc12
